Source: US5543410A, “Pharmacological use of phthaloylhydrazide derivatives; combination and application thereof” (L.I.M.A.D. Limited, priority 1993, dated 1996)

Experiments:
[1] = system: inflammation of the mucosae, chronic tonsillitis; assay: inflammation of the mucosae / chronic tonsillitis (gargling); type: in vivo; conditions: gargling solution
anal adenocarcinoma = system: anal adenocarcinoma
Text: Kh., a patient who was […], had been diagnosed with an anal adenocarcinoma seven months earlier.
The diagnosis had been verified histologically. The patient cited pain in the anus, constipation, difficulty in defecating, and secretion of mucus and blood from the anus. On account of the patient's categorical refusal to undergo surgery for abdominoperineal excision of the rectum, radiation therapy had been provided in doses of […]. […] Forty days later, the patient underwent another cycle of radiation therapy, with doses of […]. During the next thirty days, the drug was administered in doses of 100 mg every four hours, in the form of rectal suppositories. […] For the next thirty days, the dosage of the drug was increased, and intramuscular administration of 100 mg per day was provided for this patient, along with a rectal suppository (100 mg).

[2] = system: chronic inflammation of female genitalia; conditions: 100 mg once each day
Description: The drug was administered to these patients in the form of rectal suppositories (to be inserted at night), in doses of 100 mg once each day, for a five-day period. Subsequently, vaginal insertion was performed for an additional period of two days.

[3] = system: dermatitis of unknown etiology
Description: The patient was treated for fourteen days.
The affected cutaneous areas were treated three times daily with a water-soluble emulsion containing 30 mg of the drug, and, on alternating days, suppositories containing 50 mg of the drug (5 mg/kg according to weight) were administered rectally.

AIDS = system: AIDS
Description: Treatment began with intramuscular administration of 100 mg doses of the drug, once daily.
The daily dosage of the drug was then increased to 400 mg.

male mice = conditions: 30 and 60 mg/kg
Description: Doses of 30 mg/kg and 60 mg/kg according to body weight were used for studying pharmacological properties in relation to the central nervous system. Selection of this dosage level was based upon criteria in terms of safety in using drugs.
Neuropharmacological effects were studied in sexually mature male mice from unspecified strains. A solution of the drug was administered intraabdominally to these mice, with weights of 18.0 g to 20.0 g, and neuropharmacological effects were studied in terms of changes in the natural orientation reflex, in induced aggressiveness, and in muscle tone. Changes in natural orientation were recorded according to current methods. For determining the drug's influence upon induced aggressiveness, the electrical stimulation method (an electrical current which caused pain was transmitted) was adopted.
Changes in muscle tone were measured according to the "pivot pin" method.

macrophages = conditions: in vitro and in vivo; SV-40 affected cancer cells, glioma cultures
[4] = system: convulsions caused by Corazolum and strychnine; conditions: 30 and 60 mg/kg
[5] = system: tumor necrosis factor (TNF)
[6] = system: cancer affecting the left breast, metastatic tumors
Description: During subsequent years, they had undergone radiation therapy and chemotherapy on multiple occasions on account of metastatic tumors.
On account of the severity of the patient's condition, intramuscular administration of the drug in 100 mg doses every two days was initiated.

anal fissures = system: anal fissures
Description: Similarly, anal fissures have represented a difficult problem for modern medicine to resolve. In this instance, the inflammatory component is associated with a morphological defect.
The drug was administered to this group of patients in the form of suppositories, in doses of 100 mg every twelve hours, during a five-day period.

[7] = passage through living membranes / microbial membranes
pregnant female rats = conditions: 60 mg/kg single dose, intraperitoneal
Description: Tests pertaining to teratogenicity and embryotoxicity were performed upon fifty-eight pregnant female rats. A single dose (60 mg/kg) was injected intraperitoneally on the first, third, seventh, tenth, fourteenth, or seventeenth days of gestation. These rats were decapitated on the twenty-first day of gestation, and uteri and fetuses were examined.

[8] = system: TA 100, TA 102, and TA 97 S. typhi strains; assay: Ames' bacterial mutagenicity test; conditions: 0.01 mg/ml to 2 mg/ml, rat liver microsome activation
[9] = system: proctitis attributable to radiation therapy
Text: B., a patient who was […], complained of burning sensations in the anus, along with frequent and painful urination, after having received radiation therapy for a period of forty-five days. During a rectosigmoidoscopy examination, intense edema and contact hemorrhaging within the rectal mucosae were observed above the tumor. The diagnosis was: proctitis and cystitis arising from radiation therapy. On account of a lack of specific therapeutic measures, the drug was prescribed for the patient according to a dose of 100 mg per day.

[10] = after five to six days of treatment
[11] = 100 mg suppositories morning and evening

In the case of `Nc1cccc2c(=O)[nH][nH]c(=O)c12`, the “erythema at the site of administration” value (guinea pigs; even large doses) is reported as “Erythema was not encountered”, the indications of allergies (guinea pigs; subcutaneous or oral administration) is reported as “no indications of allergies were observed” and the “inflammation of the mucosae” value [1] is reported as “favorable results were obtained”. The tumor size (anal adenocarcinoma; 100 mg every four hours rectal, thirty days, after radiation) was “reduction of the tumor was observed”, the “reduction of anal tumor in relation to its initial dimensions” value (anal adenocarcinoma; 100 mg intramuscular per day plus 100 mg suppository, further thirty days) was “two-thirds” and the “tumor dimensions and intoxication (conclusion)” value (anal adenocarcinoma; combination with radiation therapy) was “reduction of the tumor's dimensions was therefore obtained within a brief period and symptoms of intoxication were eliminated”. The general condition (anal adenocarcinoma; in vivo) was “an improvement of the patient's general condition was observed”, the time to healing [2] was “eighth” and the “time until vaginal secretions ceased completely” value [2] was “fifth”. The therapeutic effect ([2]; second day) was “the therapeutic effect was observable”, the “time to completed epithelization” value ([3]; 30 mg emulsion three times daily, 50 mg suppositories on alternating days) was “fourteenth” and the affected cutaneous areas ([3]; after the second day) was “began to become drier”. The therapeutic effects (AIDS; 100 mg intramuscular once daily, three days) was “no therapeutic effects had been observed”, the “complications of AIDS” value (AIDS; 5 to 15 mg/kg daily, extended period) was “significant prevention or reduction of complications” and the further symptoms (AIDS; continued daily administration) was “further symptoms of the disease did not appear”. The therapeutic action (AIDS; daily dose doubled) was “still not observable”, the “effectiveness of standard doses” value (AIDS; standard doses for inflammatory diseases) was “limited effectiveness” and the “threshold for sensitivity to pain” value (male mice) was “did not alter the threshold for sensitivity to pain”. For the same molecule, the natural orientation reflex (male mice; intraabdominal) was “did not suppress the natural orientation reflex”, the muscle tone (male mice; pivot pin method) was “did not cause changes in muscle tone” and the “transformation of macrophages into killer cells” value (macrophages) was “transformation of a certain portion of macrophages into killer cells”. The prevention of convulsions [4] was “did not prevent convulsions”, the “action of TNF in mutated cells” value [5] was “intensifies the action of the tumor necrosis factor (TNF) in mutated cells” and the intensity of pain ([6]; after first injection, 100 mg intramuscular every two days) was “the intensity of their pain decreased significantly”. For the same molecule, the general condition ([6]; alternate days intramuscular) was “a steady improvement in the patient's general condition was observed”, the “urine, urination, perspiration” value ([6]; in vivo) was “their urine became more dense, frequent urination began, and their perspiration acquired a rather foul odor” and the “vomiting, stools” value ([6]; in vivo) was “vomiting began, and the patient's stools were malodorous”. The edema ([6]; thirteenth and fourteenth days) was “had diminished significantly”, the condition and appetite ([6]; twentieth day) was “the patient's condition improved, and their appetite was restored” and the “time until pain ceased” value (anal fissures; 100 mg suppositories every twelve hours) was “twenty to thirty”. For the same molecule, the recurrences (anal fissures; [10]) was “Recurrences were not observed”, the “regeneration of the mucosae” value (anal fissures; [10]) was “regeneration of the mucosae was visually observable” and the “defecation and sphincter spasms” value (anal fissures; after the third suppository) was “defecation became painless, and spasms affecting the sphincter diminished”. The recovery (anal fissures; by the fifth day) was “the patients had practically recovered”, the other symptoms (anal fissures; rectal administration) was “other symptoms were also eliminated by the end of the first day of treatment” and the “time to significant alleviation of the pain syndrome” value (anal fissures; rectal administration) was “twenty to forty”. The “passage through the hydrophobic phase of living membranes” value [7] was “easily passing through the hydrophobic phase of living membranes”, the fetal abnormalities (pregnant female rats) was “No fetal abnormalities were found” and the “storage period (stable)” value (anhydrous conditions) was greater than 1 year. For the same molecule, the expiration period (aqueous solution) was “> ten to twenty”, the “inhibitory or mutagenic activity” value [8] was “did not possess inhibitory or mutagenic activity” and the clinical effect ([9]; 100 mg per day, three days) was “absence of any significant clinical effect”. For the same molecule, the “time to decrease of anal burning and painful urination” value [9, 11] was “one”, the “time until pain and burning no longer present” value [9, 11] was “third” and the “time to normal urination” value ([9]; after the dosage was increased) was “fifth”. For the same molecule, the rectosigmoidoscopy finding ([9]; ten days later) was “regeneration of the capillary network within the rectal mucosae was observed”.
